Key:
Test in all cases: relative viability (nuclei count vs DMSO), 5 days (fraction); higher = more cells survive
Pictilisib + Bortezomib = compound: CS(=O)(=O)N1CCN(Cc2cc3nc(-c4cccc5[nH]ncc45)nc(N4CCOCC4)c3s2)CC1 [Pictilisib] + CC(C)C[C@H](NC(=O)[C@H](Cc1ccccc1)NC(=O)c1cnccn1)B(O)O [Bortezomib] (partner 0.002 µM)
Method in brief: (§1)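 Medians of duplicate plates are given as relative viability. That measure is the nuclei count in treated wells divided by the count in vehicle wells. Counts were taken on 4× images of lung cancer cell lines in 1536-well plates, 5 days after pin-tool dosing the day after seeding with one drug alone or a fixed anchor-drug dose plus five library-drug doses (not always all listed) in √10 steps.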

Pictilisib + Lapatinib = compound: CS(=O)(=O)N1CCN(Cc2cc3nc(-c4cccc5[nH]ncc45)nc(N4CCOCC4)c3s2)CC1 [Pictilisib] + CS(=O)(=O)CCNCc1ccc(-c2ccc3ncnc(Nc4ccc(OCc5cccc(F)c5)c(Cl)c4)c3c2)o1 [Lapatinib] (partner 2 µM)
Method in brief: as §1

Pictilisib + Luminespib = compound: CS(=O)(=O)N1CCN(Cc2cc3nc(-c4cccc5[nH]ncc45)nc(N4CCOCC4)c3s2)CC1 [Pictilisib] + CCNC(=O)c1noc(-c2cc(C(C)C)c(O)cc2O)c1-c1ccc(CN2CCOCC2)cc1 [Luminespib] (partner 0.01 µM)
Method in brief: as §1

MK-2206 + Phenformin = compound: NC1(c2ccc(-c3nc4ccn5c(=O)[nH]nc5c4cc3-c3ccccc3)cc2)CCC1 [MK-2206] + N=C(N)NC(=N)NCCc1ccccc1 [Phenformin] (partner 250 µM)
Method in brief: as §1

MK-2206 + OSI-027 = compound: NC1(c2ccc(-c3nc4ccn5c(=O)[nH]nc5c4cc3-c3ccccc3)cc2)CCC1 [MK-2206] + COc1cccc2cc(-c3nc([C@H]4CC[C@H](C(=O)O)CC4)n4ncnc(N)c34)[nH]c12 [OSI-027] (partner 0.5 µM)
Method in brief: as §1

UMC-11 showed a relative viability (Pictilisib + Bortezomib; first compound 0.02 µM) of 0.828, a relative viability (Pictilisib + Bortezomib; first compound 0.06325 µM) of 0.902 and a relative viability (Pictilisib + Bortezomib; first compound 0.6325 µM) of 0.78. For the same cell line, the relative viability (Pictilisib + Bortezomib; first compound 2 µM) was 0.768, the relative viability (Pictilisib + Lapatinib; first compound 0.02 µM) was 1.09 and the relative viability (Pictilisib + Lapatinib; first compound 0.06325 µM) was 1.21. For the same cell line, the relative viability (Pictilisib + Lapatinib; first compound 0.6325 µM) was 1.03, the relative viability (Pictilisib + Lapatinib; first compound 2 µM) was 0.887 and the relative viability (Pictilisib + Luminespib; first compound 0.02 µM) was 1.02. It also gave a relative viability (Pictilisib + Luminespib; first compound 0.06325 µM) of 1.15, a relative viability (Pictilisib + Luminespib; first compound 0.6325 µM) of 1.09 and a relative viability (Pictilisib + Luminespib; first compound 2 µM) of 0.988. It also gave a relative viability (MK-2206 + Phenformin; first compound 0.01 µM) of 0.351, a relative viability (MK-2206 + Phenformin; first compound 0.03162 µM) of 0.312 and a relative viability (MK-2206 + Phenformin; first compound 0.3162 µM) of 0.33. It also gave a relative viability (MK-2206 + Phenformin; first compound 1 µM) of 0.316, a relative viability (MK-2206 + OSI-027; first compound 0.01 µM) of 0.491 and a relative viability (MK-2206 + OSI-027; first compound 0.03162 µM) of 0.567. The relative viability (MK-2206 + OSI-027; first compound 0.3162 µM) was 0.46 and the relative viability (MK-2206 + OSI-027; first compound 1 µM) was 0.521.

— the supplement of paper PMC10307832
